Data published in the NIST ThermoML archive (doi:10.1021/je0255628).
Where “and” joins values, the source holds several entries; their conditions need not be identical. Equal entries are not always repeated. Numbers after ± are expanded uncertainties.

Settings: Liquid

Structure (SMILES)	vapor or sublimation pressure (308.15 K)	vapor or sublimation pressure (313.15 K)
CCOCCO [2-ethoxyethan-1-ol]	1.303 ± 0.16 kPa	1.864 ± 0.16 kPa and 1.803 ± 0.16 kPa and 1.829 ± 0.16 kPa
CCOC(C)=O [ethyl acetate]	–	25.08 ± 0.2 kPa

The next lines start with the values.

vapor or sublimation pressure (308.15 K)	vapor or sublimation pressure (313.15 K)	Structure (SMILES)
–	10.6 ± 0.17 kPa	CCOC(=O)CC [ethyl propanoate]
–	53.81 ± 0.24 kPa	COC(C)=O [methyl ethanoate]
114.88 ± 0.35 kPa	–	COC=O [methyl methanoate]
–	9.586 ± 0.17 kPa	CCCOC(C)=O [propyl ethanoate]
